We go through eight molecules from patent US4117142A, “Disubstituted triphenylmethylmidazoles for treating mycotic infections” (Bayer Aktiengesellschaft, priority 1972, dated 1978).

Each structure is given as a SMILES string. ≈ marks a conversion by molar mass, not a printed value.

Assay [1] has as its system Candida Albicans. The assay can be described thus: Series dilution test in vitro, minimum inhibitory concentration, Candida albicans. Particulars: 28° C, 24 to 96 hours. In kind it is cell-based. On the procedure:
(§1) Determination of the antimycotic spectrum of activity in vitro by the series dilution test.
(§2) The nutrient media used were Sabouraud's milieu d'epreuve for dermatophyties and molds and meat broth-glucose bouillon for blastomyces and biphase fungi.
(§3) The incubation temperature was 28° C and the incubation time was 24 to 96 hours.

The test system of the next assay is Aspergillus niger. Put plainly: Series dilution test in vitro, minimum inhibitory concentration, Aspergillus niger. It counts as cell-based. Particulars: 28° C, 24 to 96 hours. The procedure:
as §1, §2, §3

Assay [2] deals with Candida albicans. The assay can be described thus: Candidosis in mice, oral treatment. It counts as in vivo, Mice of the type SPF-C1. To be noted: orally 50, 75, 100 and 150 mg/kg, one hour before and 7 hours after infection; untreated control ~5% survival. On the procedure: Description of the experiment:
Mice of the type SPF-C1 were infected intravenously with 1-2 × 10^6 logarithmically-growing Candida cells suspended in physiological sodium chloride solution.
One hour before, and 7 hours after, the infection the animals are treated orally with 50, 75, 100 and 150 mg/kg of body weight of the preparations.
Untreated animals died of the infection 3 to 6 days after infection. The survival rate on the 6th day after infection was ~ 5% in untreated control animals.

Assay [3] deals with Trichophyton mentagrophytes. Put plainly: Series dilution test in vitro, minimum inhibitory concentration, Trichophyton mentagrophytes. In kind it is cell-based. Particulars: 28° C, 24 to 96 hours. The procedure: as §1, §2, §3

In general, MIC refers to the lowest concentration found to suppress growth. Lower therefore signals a more susceptible organism. `Cc1cccc(C(c2ccccc2)(c2ccccc2)n2ccnc2)c1C` [Example 1, 1-(2,3-dimethylphenyl-diphenyl)-methyl-imidazole]: the MIC is 1 µg/mL (≈ 2.95 µM) with Candida Albicans [1] (n.s. = no added serum); 4 µg/mL (≈ 11.8 µM) in the assay on Aspergillus niger (n.s. = no added serum); 40 µg/mL (≈ 118 µM) in the assay with Aspergillus niger (w.s. = with 30% serum added); below 1 µg/mL in assay [3] (n.s. = no added serum); 4 µg/mL (≈ 11.8 µM) in assay [3] (w.s. = with 30% serum added). In the assay on Candida albicans [2], the “Action on candidosis in Mice (survival on the 6th day after infection)” value (“Action on candidosis in Mice” below) was “+++++ (very good action = >90% survival on the 6th day after infection)”.

On to `Cc1ccc(C(c2ccccc2)(c2ccccc2)n2ccnc2)c(C)c1` [Example 2, 1-(2,4-Dimethylphenyl-diphenyl)-methyl-imidazole], for which, in the assay with Candida albicans [2], the “Action on candidosis in Mice” value is recorded as “+++++ (very good action = >90% survival on the 6th day after infection)”.

`Cc1ccc(C)c(C(c2ccccc2)(c2ccccc2)n2ccnc2)c1` [Example 3, 1-(2,5-Dimethylphenyl-diphenyl)-methyl-imidazole]: the MIC is 1 µg/mL (≈ 2.95 µM) against Candida Albicans [1] (n.s. = no added serum), below 1 µg/mL in assay [3] (n.s. = no added serum) and 40 µg/mL (≈ 118 µM) in assay [3] (w.s. = with 30% serum added). In addition, the “Action on candidosis in Mice” value in the assay on Candida albicans [2] is on record as “++++ (good action = >80% survival on the 6th day after infection)”.

In the case of `Cc1cc(Cl)ccc1C(c1ccccc1)(c1ccccc1)n1ccnc1` [Example 4, 1-(2-Methyl-4-chlorophenyl-diphenyl)-methyl-imidazole], the MIC with Candida Albicans [1] (n.s. = no added serum) was 1 µg/mL (≈ 2.79 µM); in the assay with Candida Albicans [1] (w.s. = with 30% serum added), 40 µg/mL (≈ 111 µM); in assay [3] (n.s. = no added serum), below 1 µg/mL; in assay [3] (w.s. = with 30% serum added), 10 µg/mL (≈ 27.9 µM). The “Action on candidosis in Mice” value in the assay on Candida albicans [2] is recorded as “+++++ (very good action = >90% survival on the 6th day after infection)”.

Take `Clc1cccc(C(c2ccccc2)(c2ccccc2)n2ccnc2)c1Cl` [Example 6, 1-(2,3-Dichlorophenyl-diphenyl)-methyl-imidazole]: the “Action on candidosis in Mice” value with Candida albicans [2] is recorded as “+++++ (very good action = >90% survival on the 6th day after infection)”.

As for `Clc1cccc(Cl)c1C(c1ccccc1)(c1ccccc1)n1ccnc1` [Example 7, 1-(2,6-Dichlorophenyl-diphenyl)-methyl-imidazole], the figures for the MIC (with Candida Albicans [1] (n.s. = no added serum); in assay [3] (n.s. = no added serum); in assay [3] (w.s. = with 30% serum added)) were 1 µg/mL (≈ 2.64 µM), below 1 µg/mL and 4 µg/mL (≈ 10.5 µM), respectively. The “Action on candidosis in Mice” value in the assay with Candida albicans [2] is listed as “+++++ (very good action = >90% survival on the 6th day after infection)”.

`Cc1ccccc1C(c1ccccc1)(c1ccccc1C)n1ccnc1` [Example 8, 1-(2-Methylphenyl-2'-methylphenyl-phenyl)-methyl-imidazole]: the values for the MIC (with Candida Albicans [1] (n.s. = no added serum); in assay [3] (n.s. = no added serum); in assay [3] (w.s. = with 30% serum added)) were 1 µg/mL (≈ 2.95 µM), below 1 µg/mL and 10 µg/mL (≈ 29.5 µM), respectively. Further, the “Action on candidosis in Mice” value with Candida albicans [2] is “+++++ (very good action = >90% survival on the 6th day after infection)”.

As for `Clc1ccccc1C(c1ccccc1)(c1ccccc1Cl)n1ccnc1` [Example 9, 1-(2-Chlorophenyl-2'-chlorophenyl-phenyl)-methyl-imidazole], the MIC in the assay on Candida Albicans [1] (n.s. = no added serum) was 1 µg/mL (≈ 2.64 µM); in the assay on Aspergillus niger (w.s. = with 30% serum added), 10 µg/mL (≈ 26.4 µM); in assay [3] (n.s. = no added serum) it was below 1 µg/mL; in assay [3] (w.s. = with 30% serum added), 4 µg/mL (≈ 10.5 µM). Besides, in the assay with Candida albicans [2], the “Action on candidosis in Mice” value is “++++ (good action = >80% survival on the 6th day after infection)”.
